Here are results for 14 compounds from ChEMBL document CHEMBL1134428, “Combretoxazolones: synthesis, cytotoxicity and antitumor activity” (Bioorg Med Chem Lett, 2001).

For orientation: IC50 means the concentration that inhibits the measured activity by half. The low end stands for inhibition by little substance, the high end for a need for much substance.

The subject of test [1] is MCF7. Kind of test: Concentration which produces 50% inhibition of growth of human breast tumor MCF-7 cell line. Type of test: functional, cell-based.
Test [2] relates to B16. The test can be described thus: Concentration which produces 50% inhibition of growth of murine melanoma B16 cell line. Type of test: functional, cell-based. The following applies: Mus musculus.
For test [3], the system named is HCT-116. Kind of test: Concentration which produces 50% inhibition of growth of human colon tumor HCT 116. The class given is functional, cell-based.
Test [4] has as its system PC-3. Kind of test: Concentration which produces 50% inhibition of growth of prostate tumor cell line PC-3. The class given is functional, cell-based. The following applies: Homo sapiens.
Test [5] relates to A549. The test can be described thus: Concentration which produces 50% inhibition of growth of human lung carcinoma cell line A549. The class given is functional, cell-based.
The subject of test [6] is MCF7. Kind of test: Compound was tested for inhibition of growth of human breast tumor MCF-7 cell line up to a conc of 10 uM; NI means no inhibition. Type of test: functional, cell-based.
Test [7] deals with PC-3. Kind of test: Compound was tested for inhibition of growth of prostate tumor cell line PC-3 up to a conc of 10 uM; NI means no inhibition. The class given is functional, cell-based, Homo sapiens.
For test [8], the system named is HCT-116. The test can be described thus: Compound was tested for inhibition of growth of human colon tumor HCT116 up to a conc of 10 uM; NI means no inhibition. Type of test: functional, cell-based.
Test [9] relates to A549. Kind of test: Compound was tested for inhibition of growth of human lung carcinoma cell line A549 up to a conc of 10 uM; NI means no inhibition. The class given is functional, cell-based.
Test [10] relates to B16. The test can be described thus: In vivo antitumor activity against BDF1 mice bearing B16 murine melanoma cells at a dose of 100 mg/kg/day. The class given is functional, Mus musculus.
The subject of test [11] is B16. The test can be described thus: In vivo antitumor activity against BDF1 mice bearing B16 murine melanoma cells at a dose of 30 mg/kg/day. The class given is functional, Mus musculus.
In test [12] the test system is B16. Kind of test: In vivo antitumor activity against BDF1 mice bearing B16 murine melanoma cells at a dose of 10 mg/kg/day. Type of test: functional, Mus musculus.
The test system of test [13] is B16. The test can be described thus: In vivo antitumor activity against BDF1 mice bearing B16 murine melanoma cells at a dose of 3 mg/kg/day. The class given is functional, Mus musculus.

In the case of `COc1ccc(-c2coc(=O)n2-c2cc(OC)c(OC)c(OC)c2)cc1O`, the IC50 with MCF7 [1] turned out to be 2.9 nM; in the test on B16 [2], 0.9 nM; in the test on HCT-116 [3], 1.7 nM; in the test with PC-3 [4] it was 2.3 nM; in the test with A549 [5] it was 3.1 nM.

On to `COc1cc(-c2nc(O)oc2-c2ccc3ccccc3c2)cc(OC)c1OC`, for which the IC50 came to 16.7 nM in the test with MCF7 [1]; 7.4 nM with B16 [2]; 11.2 nM with HCT-116 [3]; 7.1 nM in the test on PC-3 [4]; 10.8 nM with A549 [5].

As to `COc1ccc(-n2c(-c3cc(OC)c(OC)c(OC)c3)coc2=O)cc1`, the IC50 entry in the test with MCF7 [6] was “Not Active”; with B16 [2], 1880 nM; in the test with PC-3 [7], “Not Active”; with HCT-116 [8] it was “Not Active”; with A549 [9], “Not Active”.

As for `COc1ccc(-c2coc(=O)n2-c2cc(OC)c(OC)c(OC)c2)cc1N`, the Inhibition rate in the test on B16 [10] came to 67%; with B16 [11], 61%; in the test on B16 [12] it was 34%. For the same compound, the IC50 with MCF7 [1] was 1.8 nM; with B16 [2] it was 1.1 nM; in the test on HCT-116 [3], 3.2 nM; in the test with PC-3 [4] it was 2.5 nM; with A549 [5] it was 4.3 nM.

On to `COc1cc(-n2c(-c3ccc4c(c3)OCO4)coc2=O)cc(OC)c1OC`, for which the IC50 in the test on MCF7 [1] was 39.7 nM; in the test on B16 [2], 45 nM; with HCT-116 [3] it was 57.4 nM; in the test on PC-3 [4], 70.6 nM; in the test on A549 [5], 64.5 nM.

Regarding `COc1ccc(-c2oc(O)nc2-c2cc(OC)c(OC)c(OC)c2)cc1`, the IC50 in the test with MCF7 [1] was 28.4 nM; in the test with B16 [2], 14.5 nM; with HCT-116 [3] it was 21.7 nM; with PC-3 [4], 20.1 nM; with A549 [5], 16.9 nM.

Regarding `COc1cc(-c2nc(O)oc2-c2ccc3c(c2)OCO3)cc(OC)c1OC`, the IC50 was determined as 78.5 nM in the test on MCF7 [1]; 89.3 nM with B16 [2]; 101 nM in the test with HCT-116 [3]; 112 nM with PC-3 [4]; 63.1 nM in the test with A549 [5].

Consider `COc1ccc(-c2oc(O)nc2-c2cc(OC)c(OC)c(OC)c2)cc1N`, for which the IC50 in the test on MCF7 [1] turned out to be 4.9 nM; with B16 [2] it was 2.4 nM; in the test on HCT-116 [3], 3.7 nM; in the test on PC-3 [4], 2.1 nM; with A549 [5], 3.8 nM.

Take `COc1ccc(-c2coc(=O)n2-c2cc(OC)c(OC)c(OC)c2)cc1`: the IC50 in the test with MCF7 [1] came to 10.5 nM; in the test on B16 [2], 7.9 nM; in the test on HCT-116 [3] it was 11 nM; in the test with PC-3 [4] it was 7.5 nM; with A549 [5], 19.9 nM.

In the case of `COc1ccc(-c2nc(O)oc2-c2cc(OC)c(OC)c(OC)c2)cc1`, the half-inhibitory concentration (IC50) entry was “Not Active” in the test on MCF7 [6]; 1390 nM with B16 [2]; “Not Active” in the test on PC-3 [7]; “Not Active” in the test with HCT-116 [8]; “Not Active” in the test on A549 [9].

With `COc1ccc(-c2oc(O)nc2-c2cc(OC)c(OC)c(OC)c2)cc1O`, the IC50 came out at 5.7 nM in the test on MCF7 [1]; 5.4 nM in the test on B16 [2]; 6.1 nM with HCT-116 [3]; 6.4 nM in the test with PC-3 [4]; 7.9 nM with A549 [5].

As to `COc1cc(-n2c(-c3ccc4ccccc4c3)coc2=O)cc(OC)c1OC`, the IC50 in the test on MCF7 [1] is 3.7 nM; in the test on B16 [2] it was 5.8 nM; in the test on HCT-116 [3] it was 4.9 nM; in the test with PC-3 [4], 3.1 nM; in the test on A549 [5] it was 5.9 nM.

As to `COc1ccc(/C=C\c2cc(OC)c(OC)c(OC)c2)cc1O` [COMBRETASTATIN A4], the IC50 with MCF7 [1] amounted to 2.7 nM; with B16 [2], 1 nM; in the test on HCT-116 [3] it was 0.9 nM; in the test with PC-3 [4], 2.7 nM; with A549 [5], 2.1 nM.

Take `COc1cccc2c1C(=O)c1c(O)c3c(c(O)c1C2=O)C[C@@](O)(C(=O)CO)C[C@@H]3O[C@H]1C[C@H](N)[C@H](O)[C@H](C)O1` [DOXORUBICIN]: the Inhibition rate with B16 [13] turned out to be 55%.
